Legend:
[1] = test system: experimental allergic encepharomyelitis (EAE); test: Experimental allergic encepharomyelitis (EAE); assay type: in vivo, Lewis female rats; conditions: Rattus norvegicus, po, 432 h, day 0 to 13, cumulative score for 18 days, rats, read-out: Inhibition of clinical score; for inhibition in vivo at 100 mg/kg: 100 mg/kg p.o. once a day; for inhibition in vivo at 30 mg/kg: 30 mg/kg p.o. once a day
Procedure: Effect of the test compounds on experimental allergic encep-haromyelitis. Experimental allergic encepharomyelitis (EAE) is a prototype for cell-mediated autoimmune diseases, and has been widely used as an animal model of multiple sclerosis. According to the method described by Deguchi et al., Brain and Nerve, Vol.42, pp.391-397(1990), EAE was induced by using Lewis female rats (5 rats per group). […] 0.5 % CMC solution instead of the test compound was administered to the control rats. The cumulative score of the symptoms for 18 days was obtained and the inhibitory percentage in the cumulative score produced by the test compound group was expressed relative to the cumulative score from the control group.

[2] = test system: delayed-type hypersensitivity; test: Delayed-type hypersensitivity potentiated in mice by cyclophosphamide pretreatment (SRBC-induced paw edema); assay type: in vivo, BALB/c male mice; conditions: Mus musculus, po, 120 h, read-out: Delayed-type paw edema inhibitions; for inhibition in vivo at 100 mg/kg: 100 mg/kg p.o. once a day for 5 days; for inhibition in vivo at 10 mg/kg: 10 mg/kg p.o. once a day for 5 days; for inhibition in vivo at 30 mg/kg: 30 mg/kg p.o. once a day for 5 days
Procedure: The effect of the test compounds on the delayed-type hypersensitivity. Delayed-type hypersensitivity in potentiated in mice by pretreatment with cyclophosphamide was carried out in accordance with the method of P. H. Lagrange et al., Journal of Experimental Medicine, Vol.139, pp.1529-1539(1974). In brief, BALB/c male mice (8 weeks old, 6 to 8 mice per group) were pretreated with intraperitoneal injection of 75 mg/kg cyclophosphamide. Four days after the injection, 0.2 ml SRBC (sheep red blood cells) suspension (5×10^7 cells/ml) was intravenously sensitized. Three days after the sensitization; delayed-type hypersensitive responses were induced with intradermally injection of 0.05 ml SRBC suspension (8×10^9 cells/ml) to the left hind paw. After 24 hours, the mice were killed and both hind paws were cut off at the ankle to determine the weight of the paw. The SRBC-induced edema was measured as the difference between the left and right paw weights. The inhibitory percentage in paw edema produced by the compound treatment was expressed relative to the edema from the control mice. The test compounds were suspended in 0.5% carboxymethylcellulose (CMC) solution and were administered p.o. once a day for 5 days from 2 days prior to the sensitization. 0.5 % CMC solution instead of the test compounds was administered to the control mice.

[3] = test system: hemolytic plaque forming cell (PFC) response; test: Hemolytic plaque forming cell (PFC) response, SRBC sensitization; assay type: in vivo, BDF1 male mice; conditions: for PFC No./spleen: mean ± S.E.
[4] = test system: very late antigen-4 (VLA-4); test: Expression of VLA-4 on lymphocytes from EAE rats (flow cytometry); assay type: in vivo, rat; conditions: 100 mg/kg, ten days after immunization, control 29.9
Procedure: Effect of the compounds on the expression of cell adhesion molecule (very late antigen-4:VLA-4) in EAE rats.
VLA-4 is one of the cell adhesion molecules which may be involved in the migration of lymphocytes. The effect of the compounds on the expression of VLA-4 on lymphocytes from EAE rats was examined. […] The leukocyte fraction was isolated from 5ml of the blood by density gradient centrifugation. 5×10^5of the leukocytes were suspended in 0.5 ml of phosphate buffered saline (PBS) containing 0.1 % bovine serum albumin and then reacted with 5 μl of mouse anti-rat VLA-4 antibo dy. After incubation at 4° C. for 1 hour, the cells were reacted with fluorescence isothiocyanate-conjugated sheep anti-mouse immunoglobulin for a further 30 min. The cells were washed with PBS and were analyzed on flow cytometry. The lymphocyte population was isolated to construct on based a forward and 90° light scatter. The results were expressed as a percentage of VLA-4 positive cell number to the lymphocyte number.

CD11b = test: Enhanced expression of CD11b in HL-60 cells stimulated by PMA (flow cytometry); assay type: cell-based, human; conditions: 10 μg/ml; HL-60, 24 hours; mean ± S.E., 6 measurements; control 82.2 ± 4.9
Procedure: Effect of the test compounds on the enhanced expression of cell adhesion molecule CD11b in HL-60 (human promyelocytic leukemia cell line)stimulatedby phorbol myristate acetate (PMA).
CD11b is the α-chain of cell adhesion molucule Mac-1, which is expressed in the activation of monocytes. The effect of the test compounds on the expression of CD11b on monocytes, HL-60 cells was analyzed. In brief, 5×10^6 HL-60 cells were suspended in 2 ml of RPMI-1640 containing 10% fetal calf serum (FCS) in each well of a 12-well multiplate, and then PMA ([…] final concentration) and the test compound were added to themedium. After incubation at 37° C. for 24 hours in an atmosphere containig 5% CO2, the cells were collected and was hed with PBS. 3×10^3 HL-60 cells were resuspended in 300 μl PBS(containing 1% FCS) and incubated with 5 μl of phycoerythrin-conjugated mouse anti-human CD11b antibody. After 1 hour incubation at 4° C., the cells were washed with PBS. The cells were analyzed on flow cytometry, and the results were expressed as the enhanced percentage of CD11b positive cells in the treated group relative to the PMA-untreated group.

[5] = 2 × 10^6 cells sensitization, 10 mg/kg p.o. for 3 days
[6] = 2 × 10^8 cells sensitization, 10 mg/kg p.o. for 3 days
[7] = 2 × 10^6 cells sensitization, 1 mg/kg p.o. for 3 days
[8] = 2 × 10^6 cells sensitization, 100 mg/kg p.o. for 3 days
[9] = 2 × 10^8 cells sensitization, 1 mg/kg p.o. for 3 days
[10] = 2 × 10^8 cells sensitization, 100 mg/kg p.o. for 3 days

With CC(C)(S)[C@@H](N)C(=O)O [D-PENICILLAMINE, D-penicillamine, reference compound] the inhibition in vivo at 100 mg/kg [1] was -10% and the inhibition in vivo at 100 mg/kg [2] was -3%.
In the case of C[C@]12C=CC(=O)C=C1CC[C@@H]1[C@@H]2[C@@H](O)C[C@@]2(C)[C@H]1CC[C@]2(O)C(=O)CO [PREDNISOLONE, prednisolone, reference compound], the “PFC number, percentage of control group” value [3, 5] is reported as 81 PERCENTAGE, the “PFC No./spleen” value [3, 5] is reported as 3.97 ± 0.78 ×10^3 and the “PFC number, percentage of control group” value [3, 6] is reported as 7 PERCENTAGE. The “PFC No./spleen” value [3, 6] was 17 ± 3 ×10^3 and the inhibition in vivo at 10 mg/kg [2] was 44%.
For O=C(O)c1cc(/N=N/c2ccc(S(=O)(=O)Nc3ccccn3)cc2)ccc1O [SULFASALAZINE, Sulfasalazine, reference compound], the inhibition in vivo at 300 mg/kg ([1]; 300 mg/kg p.o. once a day) was 1% and the inhibition in vivo at 100 mg/kg [2] was 5%.
With CS(=O)(=O)Nc1cc2occ(NC=O)c(=O)c2cc1Oc1ccccc1 [compound No. 1, 3-formylamino-7-methylsulfonylamino-6-phenoxy-4H-1-benzopyran-4-one] the “Percentage of VLA-4 positive cell (mean)” value [4] was 12.0 PERCENTAGE, the “PFC number, percentage of control group” value [3, 7] was 145 PERCENTAGE and the “PFC No./spleen” value [3, 7] was 7.06 ± 1.17 ×10^3. For the same molecule, the “PFC number, percentage of control group” value [3, 5] was 146 PERCENTAGE, the “PFC No./spleen” value [3, 5] was 7.13 ± 0.52 ×10^3 and the “PFC number, percentage of control group” value [3, 8] was 111 PERCENTAGE. The “PFC No./spleen” value [3, 8] was 5.40 ± 0.49 ×10^3, the “PFC number, percentage of control group” value [3, 9] was 963 PERCENTAGE and the “PFC No./spleen” value [3, 9] was 231 ± 18 ×10^3. The “PFC number, percentage of control group” value [3, 6] was 92 PERCENTAGE, the “PFC No./spleen” value [3, 6] was 221 ± 17 ×10^3 and the “PFC number, percentage of control group” value [3, 10] was 54 PERCENTAGE. For the same molecule, the “PFC No./spleen” value [3, 10] was 129 ± 20 ×10^3, the inhibition in vivo at 1 mg/kg ([1]; 1 mg/kg p.o. once a day) was 21% and the inhibition in vivo at 100 mg/kg [1] was 67%. It also gave an inhibition in vivo at 10 mg/kg [2] of 12%, an inhibition in vivo at 30 mg/kg [2] of 27% and an inhibition in vivo at 100 mg/kg [2] of 39%. The “CD11b increased rate of expression” value (CD11b) was 49.9 ± 1.8%.
CS(=O)(=O)Nc1cc2occc(=O)c2cc1Oc1ccccc1 [compound No. 2, 7-methylsulfonylamino-6-phenoxy-4H-1-benzopyran-4-one] gave an inhibition in vivo at 100 mg/kg [2] of 17%.
Work on CS(=O)(=O)Nc1cc2occc(=O)c2cc1Oc1ccc(F)cc1F [compound No. 3, 6-(2,4-difluorophenoxy)-7-methylsulfonylamino-4H-1-benzopyran-4-one] yielded an inhibition in vivo at 30 mg/kg [1] of 86% and an inhibition in vivo at 30 mg/kg [2] of 48%.
CS(=O)(=O)Nc1cc2occ(C(N)=O)c(=O)c2cc1Oc1ccccc1 [compound No. 4, 3-carbamoyl-7-methylsulfonylamino-6-phenoxy-4H-1-benzopyran-4-one] gave an inhibition in vivo at 30 mg/kg [1] of 50% and an inhibition in vivo at 100 mg/kg [2] of 41%.
Cc1oc2cc(NS(C)(=O)=O)c(Oc3ccccc3)cc2c(=O)c1C(N)=O [compound No. 5, 3-carbamoyl-2-methyl-7-methylsulfonylamino-6-phenoxy-4H-1-benzopyran-4-one] showed an inhibition in vivo at 100 mg/kg [2] of 16%.
Molecule CN(C=O)c1coc2cc(NS(C)(=O)=O)c(Oc3ccccc3)cc2c1=O [compound No. 6, 3-(N-formyl-N-methyl)amino-7-methylsulfonylamino-6-phenoxy-4H-1-benzopyran-4-one] has an inhibition in vivo at 30 mg/kg [1] of 66% and an inhibition in vivo at 100 mg/kg [2] of 17%.
CS(=O)(=O)Nc1cc2occ(C(=O)O)c(=O)c2cc1Oc1ccccc1 [compound No. 7, 3-carboxy-7-methylsulfonylamino-6-phenoxy-4H-1-benzopyran-4-one] showed an inhibition in vivo at 30 mg/kg [1] of 50% and an inhibition in vivo at 100 mg/kg [2] of 16%.
CSc1coc2cc(NS(C)(=O)=O)c(Oc3ccccc3)cc2c1=O [compound No. 8, 3-methylthio-7-methylsulfonyl amino-6-phenoxy-4H-1-benzopyran-4-one] was tested, and the inhibition in vivo at 30 mg/kg [1] was 17% and the inhibition in vivo at 100 mg/kg [2] was 21%.
Work on CS(=O)(=O)Nc1cc2occ(NC=O)c(=O)c2cc1Nc1ccc(F)cc1F [compound No. 9, 6-(2,4-difluorophenylamino)-3-formylamino-7-methylsulfonylamino-4H-1-benzopyran-4-one] yielded an inhibition in vivo at 30 mg/kg [1] of 50% and an inhibition in vivo at 100 mg/kg [2] of 28%.
Molecule CS(=O)(=O)Nc1cc2occ(C(N)=O)c(=O)c2cc1Nc1ccc(F)cc1F [compound No. 10, 3-carbamoyl-6-(2,4-difluorophenylamino)-7-methylsulfonylamino-4H-1-benzopyran-4-one] has an inhibition in vivo at 30 mg/kg [1] of 42% and an inhibition in vivo at 100 mg/kg [2] of 20%.
Cc1cc(=O)c2cc(Oc3ccccc3)c(NS(C)(=O)=O)cc2o1 [compound No. 11, 2-methyl-7-methyl sulfonylamino-6-phenoxy-4H-1-benzopyran-4-one] was tested, and the inhibition in vivo at 30 mg/kg [1] was 52%.
Molecule CS(=O)(=O)Nc1cc2occ(NC=O)c(=O)c2cc1Nc1ccccc1F [compound No. 12, 6-(2-fluorophenylamino)-3-formylamino-7-methylsulfonylamino-4H-1-benzopyran-4-one] has an inhibition in vivo at 30 mg/kg [1] of 67%.
